First: Cc1ccc(O)c2c1N(Cc1ccccc1)C(=O)C2(C)C
Second: CNC(=O)C(CCn1c(COc2ccc(Cl)cc2)nc2c(C)cccc21)Cc1ccccc1 (stereo not drawn)
The melting point of the first is lower: 128 to 129 °C for the first, 169 to 170 °C for the second.

Going from CC1=NC(=Cc2cccc(-c3ccc(Cl)cc3)c2)C(=O)O1 to CS(=O)(=O)c1ccc(-c2oc(C(=O)O)cc(=O)c2-c2ccc(Cl)cc2)cc1, the melting point rises from 150 °C to 236 °C.

Compared with Oc1cc(Br)cc(-c2ccc3nonc3c2)c1, COc1ccc(-c2cc3nccnc3[nH]2)cc1OCCO is higher in melting point: 179 to 181 °C for the first, 203 to 205 °C for the second.

Compared with CNC(=O)c1ccc(-c2ccc(NC(=O)NCc3cccnc3)cc2)nc1N, OC(CCc1cccnc1)CSc1ccc(-c2ccccc2)cc1 (stereo not drawn) is lower in melting point: 234 to 236 °C for the first, 128 to 130 °C for the second.

First: O=C(C=Cc1ccncc1)C=Cc1ccncc1
Second: COc1ccc(/C=C/C(=O)N2CC(CCl)c3c2cc(O)c2ncccc32)cc1 (stereo not drawn)
The melting point of the first is lower: 145 to 146 °C for the first, 208 to 211 °C for the second.

Compared with O=C(O)c1cc(-c2ccccc2)c2ccccc2n1, O=S1(=O)c2ccccc2Nc2ccc(-c3ccccc3)cc21 is higher in melting point: 170 to 171 °C for the first, 269 to 272 °C for the second.

First: CC(C)(C)c1nc(C(=O)c2nccs2)nc(C(C)(C)C)c1O
Second: CC(C)(C)c1cc(-c2nnc(NC(N)=O)s2)cc(C(C)(C)C)c1O
The melting point of the first is lower: 181 to 184 °C for the first, over 270 °C for the second.

First: Cc1oc(-c2ccc(F)cc2)nc1COc1cccc(CN(O)C(N)=O)c1
Second: CCOc1cc(CO)ccc1OCc1nc(-c2ccccc2)oc1C
The melting point of the first is higher: 156 to 157 °C for the first, 130 to 131 °C for the second.

Going from Cc1ccc(S(=O)(=O)N2CCN(S(=O)(=O)c3ccc(C)cc3)[C@@H](c3ccccc3)C2)cc1 to COc1cc(F)ccc1-c1ccc(S(=O)(=O)N2c3ccccc3CC2C(=O)NCCOc2ccc(C(=O)O)cc2)cc1 (stereo not drawn), the melting point falls from 258 °C to 102 °C.

First: CS(=O)(=O)Nc1ccc(OCC2CCN(c3cc(N)ccn3)CC2)cc1
Second: CN1C2CCC1CN(c1ccc(C#Cc3ccc(N)cc3)nn1)C2
The melting point of the first is higher: 213 to 214 °C for the first, 204 to 210 °C for the second.

Compared with O=C(O)CCc1cn(Cc2ccc(F)cc2)c2ccc(C(=O)CC(=O)C(=O)O)cc2c1=O, Cc1nc(N2CCN(Cc3ccc(F)cc3)C2=O)sc1C(=O)NCc1ccc(F)cc1 is lower in melting point: 184 to 187 °C for the first, 177 to 178 °C for the second.

Compared with O=C1CC(NC(=O)C2CCCN3C(=O)CCC(NC(=O)c4ccccc4)C(=O)N23)C(OC2Cc3ccccc3C2)O1 (stereo not drawn), CC(C)(CN1CCN(C(=O)c2ccc(OC(=O)Cc3ccccc3Nc3c(Cl)cccc3Cl)cc2)CC1)SN=O is lower in melting point: 140 °C for the first, 61 to 62 °C for the second.

First: CC1CC(=O)NN=C1c1ccc(NCC(C)(C)[N+](=O)[O-])cc1 (stereo not drawn)
Second: O=C1CC(Cc2ccccc2Cl)CN1 (stereo not drawn)
The melting point of the first is higher: 187 to 189 °C for the first, 87 to 89 °C for the second.

First: Cc1nnc2cc(-c3ccccc3)c3cc(Cl)ccc3n12
Second: O=c1[nH]ccc2c1C(c1cccc(Cl)c1)N=C(c1ccccc1)N2 (stereo not drawn)
The melting point of the first is higher: 254 to 255 °C for the first, 172 to 173 °C for the second.

First: COC(=O)NC1(Cl)C=CC=CN1CC(COc1cccc2ccccc12)OC(=O)OC (stereo not drawn)
Second: COc1ccc(C=CC(=O)c2c(OC)cc(OC)cc2OC(=O)OCc2ccccc2)cc1
The melting point of the first is higher: 133 to 135 °C for the first, 127 °C for the second.

First: CCCN(CCC)C(=O)Cn1c(=O)[nH]c2cnc(-c3ccccc3)nc21
Second: CCOC(=O)c1cn(-c2cc3ccccc3cn2)cn1
The melting point of the first is higher: 190 to 191 °C for the first, 161 to 162 °C for the second.

First: COC(=O)CC[C@@H](NC(=O)[C@H](CO)NC(=O)OC(C)(C)C)C(=O)OC
Second: CCOC(=O)COC1CC(C)(C)N(O)C(C)(C)C1
The melting point of the first is higher: 90 to 92 °C for the first, 41 to 43 °C for the second.

Going from Fc1cc(-c2ncon2)ccc1CBr to Cc1cc(-c2ccnc(Cl)c2)n(-c2ccc(Cl)cc2)n1, the melting point rises from 87.3 °C to 110 °C.

First: CN(Cc1ccccc1)C1(CNC(=O)c2ccc(Cl)c(Cl)c2)CCCCC1
Second: COc1ccc(OCCc2ccccc2)c(CC(=O)O)c1
The melting point of the first is higher: 139 to 145 °C for the first, 56.5 to 57.5 °C for the second.

Compared with CC(=O)Nc1nc2c(Oc3cc(-c4ccc(C(F)(F)F)cc4NC(=O)CC4CCCCC4)ncn3)cccc2s1, Fc1ccc(-c2nn3cc(C(F)(F)F)ccc3c2-c2ccnc(NC3CCCC3)n2)cc1 is lower in melting point: 288 to 289 °C for the first, 155 to 156 °C for the second.

Compared with CN(CC(=O)O)C(=O)C=Cc1ccccc1, Cc1ccc(-c2cc(C(=O)C=Cc3ccc(C(=O)O)cc3)cc(C(C)(C)C)c2OCc2ccccc2)cc1 is higher in melting point: 177 to 179 °C for the first, 208 °C for the second.

First: CS(=O)c1cc(CCC(=O)OC(C)(C)C)nc(-c2nc(=O)c3ccccc3s2)c1 (stereo not drawn)
Second: CC(C)(C)c1cc(CNC(=O)Nc2cccc(C(F)(F)F)c2)nn1-c1ccc(S(C)(=O)=O)cc1
The melting point of the first is lower: 160 °C for the first, 162 to 165 °C for the second.

First: CN1CCC(O)(c2ccccc2F)CC1
Second: C=CCOc1nc(SC)nc(N2CCc3ccccc3CC2)c1C#N
The melting point of the first is higher: 127 to 129 °C for the first, 103 to 105 °C for the second.

Compared with Cc1ccc(NC(=O)c2ccccc2CN2C(=O)C3(COc4cc5c(cc43)CCO5)c3ccccc32)c(C)c1 (stereo not drawn), COc1cc(NC(=O)c2ccccc2Cl)ccc1C(=O)N1CCCC(OCCS(=O)(=O)c2ncc[nH]2)c2cc(Cl)ccc21 (stereo not drawn) is higher in melting point: 207 to 208 °C for the first, 247 to 248 °C for the second.

Compared with CC(C)c1ccc(-c2csc(-c3cccc(C(=O)O)c3)c2)cc1, O=C(O)c1cc(F)cc(-c2ccc(F)c3cc(Cc4cccc(C(F)(F)F)c4)sc23)c1 is lower in melting point: 220 to 222 °C for the first, 169 to 170 °C for the second.

First: CC(CNc1nc(N)nc2c1ncn2C1OC(CO)C(O)C1O)(c1ccccc1)c1ccccc1 (stereo not drawn)
Second: OCC1OC(n2cnc3c(Nn4ccc5ccccc54)ncnc32)C(O)C1O (stereo not drawn)
The melting point of the first is lower: 129 to 132 °C for the first, 155 °C for the second.

Compared with Cc1ccc(C(=O)Nc2c[nH]nc2C(=O)NCCC#N)cc1, N#CCc1ccc(NC(=O)c2ccc(C=O)cc2)cc1 is lower in melting point: 207 to 209 °C for the first, 194 °C for the second.

Compared with CN(C(=O)CCCCC1SCC2NC(=O)NC21)c1ccc(/C=C/c2c(F)cccc2F)cc1 (stereo not drawn), O=C(NCCc1ccc(CN2CCCC2)cc1)N1CCC(c2ccc(Cl)cc2)CC1 is higher in melting point: 91 to 93 °C for the first, 116 to 117 °C for the second.

First: CCC(C)(C)N1CCN(C(=O)Nc2ccc3[nH]c(C(=O)N4CCN(c5ncccc5NC(C)C)CC4)cc3c2)CC1
Second: CC(C)CC(=O)Nc1cccc(-c2ccnc3c(C(=O)c4ccoc4)cnn23)c1
The melting point of the first is higher: 240 to 242 °C for the first, 144 to 146 °C for the second.

First: OC(CBr)C(O)C(O)C(O)CBr (stereo not drawn)
Second: CCCc1c(O)cccc1Oc1cc(F)ccc1C(=O)OC
The melting point of the first is higher: 183 to 185 °C for the first, 92 to 94 °C for the second.

First: Cc1ccc(-c2nc(Cc3cc4cc(CCl)ccc4o3)c(C)o2)cc1
Second: COc1ccc2c(c1)c(CC(=O)O)c(C)n2-c1ccnc2cc(Cl)ccc12
The melting point of the first is lower: 145 to 146 °C for the first, 248 to 250 °C for the second.

First: O=[N+]([O-])N=C1NCCCN1CC1CCOC1 (stereo not drawn)
Second: O=C1C=C2CCCCC2N1c1ccc(OCCN2CCOCC2)cc1 (stereo not drawn)
The melting point of the first is lower: 87.5 to 90.8 °C for the first, 96 °C for the second.

First: COc1ccc(C(Cn2cc[nH]c2=O)=NO)cc1OC1CCCC1
Second: CCOC(=O)C1CCc2ccc(OC)cc2C1 (stereo not drawn)
The melting point of the first is higher: 191 °C for the first, 125 to 127 °C for the second.

First: Cc1ccc2c(c1)/C(=N\NC(N)=O)C(=O)N2CCCN(C(C)C)C(C)C
Second: O=C1c2ccccc2S(=O)(=O)N1CCCCBr
The melting point of the first is higher: 145 to 148 °C for the first, 72 °C for the second.

Compared with CC(C)c1ccccc1-n1c(=O)[nH]c2c(C(N)=O)nc(-c3ccc(-n4ccnc4)cc3)nc21, COc1ccc(P(=O)(c2ccccc2)c2ccccc2)c(I)c1OC is lower in melting point: 232 °C for the first, 178 to 180 °C for the second.

Compared with CCCCOc1cc(/C=C(\OCC)C(=O)O)ccc1OCCc1ccc(OS(=O)(=O)CCCC)cc1OC, CCCCCCCCOc1ccc(-c2ccc(C(=O)Oc3ccc(C(C)(Br)C(=O)OC)cc3)cc2)cc1 (stereo not drawn) is higher in melting point: 90 °C for the first, 104 to 105 °C for the second.

First: COC(=O)c1ccc(OC)c(OC)c1N
Second: COc1cc(Nc2nccc(-c3ccc(NCCCNC(C)C)nc3)n2)cc(OC)c1OC
The melting point of the first is lower: 66 to 67 °C for the first, 124 to 125 °C for the second.

Compared with COc1ccc2c(c1)c1cc(OC)ccc1c1[nH]c(S(=O)(=O)C(F)(F)F)nc21, Cc1cccc(C(=O)c2[nH]c3ccc(Cl)cc3c2CC(=O)O)n1 is lower in melting point: 228 to 231 °C for the first, 225 to 226 °C for the second.

First: COc1nc2ncccc2c2nc(S(=O)(=O)Cl)nn12
Second: CC(C)n1c(=O)c2c(-c3nc(C4CC4)no3)ncn2c2cccnc21
The melting point of the first is lower: 172 to 174 °C for the first, 221 to 223 °C for the second.

Compared with O=C(O)CCc1cn(Cc2ccc(OCc3csc(-c4ccccc4)n3)cc2)nc1-c1ccccc1, COC(=O)CSc1cccc(CNC(=O)C2Cc3ccccc3N2S(=O)(=O)c2ccc(-c3cccc(C(F)(F)F)c3)cc2)c1 (stereo not drawn) is lower in melting point: 132 to 133 °C for the first, 51 °C for the second.

Compared with Cc1nc(C)c(Cl)c(NCc2nccc(OCCCCN3CCN(Cc4ccncc4)CC3)c2C)n1, c1ccc(N2CCN(CCCc3cccnc3)CC2)nc1 is lower in melting point: 157 to 158 °C for the first, 51 to 52 °C for the second.

Compared with Cc1cccc(C)c1NC(=O)c1ccc(S(C)(=O)=O)cc1, Cc1cccc(C)c1NC(=O)CN1CCCC1=O is lower in melting point: 164 to 166 °C for the first, 153 to 154 °C for the second.

First: Nc1sc2c(c1C(=O)c1ccc(Cl)cc1)CCNC2
Second: C=CCNC(=O)c1c(O)c2ccc(Cl)cc2n(C)c1=N
The melting point of the first is lower: 164 to 166 °C for the first, 212 to 214 °C for the second.

Compared with CCc1cnc(-n2cc(CCCO)c(C(C)C)n2)nc1, CCCOc1ncc(C(C)=O)cc1-c1nc2c(CC)n(C3CN(C(C)C)C3)nc2c(=O)[nH]1 is higher in melting point: 70 to 71 °C for the first, 163 to 164 °C for the second.

First: Nc1c(F)c(N2CCC(C(N)c3ccccn3)C2)c(F)c2c1c(=O)c(C(=O)O)cn2C1CC1F (stereo not drawn)
Second: Cc1cc(Oc2cccc(C(=O)O)n2)n(C)n1
The melting point of the first is lower: 178 to 180 °C for the first, 182 °C for the second.

First: COc1cc(N)cc(N)c1
Second: COc1cc2c(c(C(C)(C)C)c1)OC(=O)C2
The melting point of the first is lower: 79 to 80 °C for the first, 117 to 118 °C for the second.

Compared with CCCCN(CC)c1nc(C)[nH]c2c(-c3ccc(Cl)cc3Cl)nc(C)c1-2, CC(C)Cc1cc2cc(O)c(Cl)c(Cl)c2s1 is lower in melting point: 94 to 95 °C for the first, 58 to 59 °C for the second.

First: O=C(NCCCCCCCNC(=O)c1ccc(OC(F)F)cc1)c1ccc(OC(F)F)cc1
Second: Cc1ccc(S(=O)(=O)OCC(C)C2CCC3C4CC=C5CC(O)CC(O)C5(C)C4CCC23C)cc1 (stereo not drawn)
The melting point of the first is higher: 138 to 139 °C for the first, 91 to 99 °C for the second.

Compared with O=c1[nH]cnc2sccc12, CC(C)(C)N(O)C(=O)C1CCC(C2CCCCC2)CC1 (stereo not drawn) is lower in melting point: 256 to 258 °C for the first, 119 to 120 °C for the second.

— a melting point compilation (Tetko et al.; mined from patent text by program, amines drawn as free bases though some values may be those of a salt)
